Like-named read-outs stand apart in the source and are kept apart here.
Assays:
[1] = molecular target: recombinant human p38α (Homo sapiens, UniProt Q16539); test: Purified and activated recombinant human p38α HTRF assay; format: biochemical; details: 1 nM p38α, 50 μM ATP, 100 nM GST-ATF2-Avitag, read-out: p3a IC550
Procedure: Purified and Activated Recombinant Human p38α Assay
• Kinase Reaction Buffer: Kinase reaction buffer for p38α HTRF assays consists of 50 mM Tris-pH 7.5, 5 mM MgCl2, 0.1 mg/mL BSA, 100 μM Na3VO4 and 0.5 mM DTT. • HTRF Detection Buffer: HTRF detection buffer contains 100 mM HEPES-pH 7.5, 100 mM NaCl, 0.1% BSA, 0.05% Tween-20, and 10 mM EDTA. • Serial Dilution of Compounds: Compounds were dissolved in 100% DMSO and serially diluted (3 fold, 10 point) in a polypropylene 96-well microtiter plate (drug plate). The final starting concentration of compounds in the p38a enzymatic assays was 1 μM. Columns 6 and 12 (HI controls and LO controls respectively) in the drug plate were reserved as controls and contained only DMSO. • Kinase Reaction: The p38α kinase reactions were carried out in a polypropylene 96-well black round bottom assay plate in total volume of 30 μL kinase reaction buffer. Appropriate concentration of purified and activated enzyme (recombinant human) was mixed with indicated concentration of ATP and 100 nM GST-ATF2-Avitag, in the presence or absence (HI control) of Compound. See table below for actual concentrations. In the absence of substrate, the background was measured as LO control. The reaction was allowed to incubate for 1 hour at RT. • Assay Reagent Concentrations: The final reagent concentrations were 1 nM p38α and 50 μM ATP. […] After 60 minutes incubation at room temperature, the assay plate was read in a Discovery Plate Reader. The wells were excited with coherent 320 nm light and the ratio of delayed ([…] post excitation) emissions at […] (native europium fluorescence) and 665 nm (europium fluorescence transferred to allophycocyanin—an index of substrate phosphorylation) was determined (Park et al, 1999). • Data Analysis: The proportion of substrate phosphorylated in the kinase reaction in the presence of compound compared with that phosphorylated in the presence of DMSO vehicle alone (HI control) was calculated using the formula: % control (POC)=(compound−average LO)/(average HI−average LO)*100. Data (consisting of POC and inhibitor concentration in μM) was fitted to a 4-parameter equation (y=A+((B−A)/(1+((x/C)AD))), where A is the minimum y (POC) value, B is the maximum y (POC), C is the x (compound concentration) at the point of inflection and D is the slope factor, using a Levenburg-Marquardt non-linear regression algorithm.
The inhibition constant (Ki) of the inhibitor was estimated from the IC50 (compound concentration at the point of inflection C) using the Cheng-Prussof equation: Ki=IC50/(1+S/Km), where S is the ATP substrate concentration, and Km is the Michaelis constant for ATP as determined experimentally. All results were expressed as the mean± the standard error of the mean. Data acquisition and non-linear regression algorithms were performed using Activity Base v5.2 and XL-fit software v4.1 respectively. All data was archived using Activity Base v5.2 software.

[2] = test system: secreted IL-8 by whole blood activated with TNF-α; test: Inhibition of TNF-α induced IL-8 in 50% human whole blood; format: cell-based
Procedure: Inhibition of TNF-α Induced IL-8 in 50% Human Whole Blood
Test compounds were evaluated in vitro for the ability to inhibit the production of secreted IL-8 by whole blood activated with TNF-α. Fresh human whole blood was obtained from healthy, non-medicated volunteers in sodium heparin tubes.
Compound Dilution—Assay Procedure
Test compounds are serially diluted 1:3 in DMSO and then diluted 1:250 into R10 (RPMI 1640, 10% human serum AB, 1× pen/strep/glutamine) to the 4× working concentration to be used in the assay. 100 ul heparinized whole blood is plated into wells of 96 well flat bottom plates. 50 ul of either 4× compound or DMSO control (Final DMSO concentration is 0.1%) are added to the appropriate wells. Plates are incubated for 1 hour at 37 degrees Celsius. 50 ul of 4× TNF-α (4 nM TNF-α, for a final concentration of 1 nM) or control (media alone) is added to the appropriate wells (Total volume=200 ul). Plates are incubated overnight (16-18 hours). 100 ul of supernatant is collected and stored in 96-well round bottom polypropylene plates at −80 degrees Celsius or assayed immediately for IL-8.
Cytokines are measured on antibody (Ab) sandwich ECL based 96-well detection plates. 20 ul of supernatant are added to plate and plate is sealed and shaken at RT for 1 hour. 130 ul of detection Ab cocktail is added and plates are sealed and shaken for 1 hour in the dark at RT. Plates are read on MSD Sector HTS instrument. Data are analyzed and IC50 values generated using Activity Base and Xl-fit programs.

[3] = test system: TNF-α secretion by LPS-treated THP1 cells; test: Lipopolysaccharide-activated THP1 cell TNF production assay; format: cell-based; details: Homo sapiens, THP-1, 3 hours, read-out: IC50 in the THP-1 cellular TNF production assay
Procedure: Lipopolysaccharide-Activated THP1 Cell TNF Production Assay
THP1 cells were resuspended in fresh THP1 media (RPMI 1640, 10% heat-inactivated FBS, 1×PGS, 1×NEAA, plus 30 μM βME) at a concentration of 1.5×10^6 cells per mL. One hundred microliters of cells per well were plated in a polystyrene 96-well tissue culture plate. 1.5 micrograms per mL of bacterial LPS was prepared in THP1 media and transferred to the first 11 columns of a 96-well polypropylene plate. Column 12 contained only THP1 media for the LO control. Compounds were dissolved in 100% DMSO and serially diluted 3 fold in a polypropylene 96-well microtiter plate (drug plate). Columns 6 and 12 were reserved as controls (HI controls and LO controls respectively) and contained only DMSO. 10 μL of LPS followed by one microliter of inhibitor compound from the drug plate was transferred to the cell plate. The treated cells were induced to synthesize and secrete TNF-α in a 37° C. humidified incubator with 5% CO2 for 3 hours. Fifty microliters of conditioned media was transferred to a 96-well MULTI-ARRAY™ 96-well small spot plate—custom coated with MAB610 containing 100 μL of 2× Read Buffer P supplemented with 0.34 nM AF210NA polyclonal Ab labeled with ruthenium (MSD-Sulfo-TAG™—NHS ester). After an overnight incubation at room temperature with shaking, the reaction was read on the Sector Imager™ 6000. […] The amount of secreted TNF-α in the presence of AMG compounds compared with that in the presence of DMSO vehicle alone (HI control) was calculated using the formula: % control (POC)=(cpd−average LO)/(average HI−averageLO)*100. Data (consisting of POC and inhibitor concentration in μM) was fitted to a 4-parameter equation (y=A+((B−A)/(1+((x/C)^D))), where A is the minimum y (POC) value, B is the maximum y (POC), C is the x (cpd concentration) at the point of inflection and D is the slope factor) using a Levenburg-Marquardt non-linear regression algorithm.

[4] = 50% human whole blood, TNF-α (1 nM final) induced IL-8, 16-18 hours, read-out: WB TNF/IL8 IC50
[5] = Homo sapiens, read-out: IC50, TNF-α induced IL-8 in 50% human whole blood

Chain of recombinant human p38α (Q16539 whole entry): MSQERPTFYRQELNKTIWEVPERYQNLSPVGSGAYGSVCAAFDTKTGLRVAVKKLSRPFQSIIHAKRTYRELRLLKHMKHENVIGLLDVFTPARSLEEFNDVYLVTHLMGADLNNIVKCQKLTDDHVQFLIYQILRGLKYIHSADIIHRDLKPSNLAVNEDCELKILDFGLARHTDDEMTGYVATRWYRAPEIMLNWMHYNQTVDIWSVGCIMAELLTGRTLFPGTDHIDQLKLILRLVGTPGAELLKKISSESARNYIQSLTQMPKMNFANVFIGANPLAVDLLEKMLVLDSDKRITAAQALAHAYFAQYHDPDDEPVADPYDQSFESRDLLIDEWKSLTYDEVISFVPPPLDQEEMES

Work on CNc1noc2c(-c3cc4cnn(-c5c(F)cccc5F)c4n(C)c3=O)c(C)ccc12 [Example 5, 1-(2,6-difluorophenyl)-7-methyl-5-(6-methyl-3-(methylamino)-1,2-benzisoxazol-7-yl)-1,7-dihydro-6H-pyrazolo[3,4-b]pyridin-6-one] yielded an IC50 [1] of 6.7 nM, an IC50 [2, 4] of 2.7 nM and an IC50 [2, 5] of no more than 100 nM. It also gave an IC50 [3] of no more than 100 nM.

For Cc1ccc2c(NC3CC3)noc2c1-c1cc2cnn(-c3c(F)cccc3F)c2n(C)c1=O [Example 1, 5-(3-(cyclopropylamino)-6-methylbenzo[d]isoxazol-7-yl)-1-(2,6-difluorophenyl)-7-methyl-1H-pyrazolo[3,4-b]pyridin-6(7H)-one], the IC50 [1] was 8.1 nM, the IC50 [2, 4] was 1.1 nM and the IC50 [2, 5] was no more than 100 nM. It also gave an IC50 [3] of no more than 100 nM.

Reference: patent US8435987B2, “Pyrazolo-pyridinone and pyrazolo-pyrazinone compounds as P38 modulators and methods of use thereof” (Amgen Inc., priority 2007, dated 2013)
